Ki data for one compound are collected here from ChEMBL document CHEMBL4177580, “New 5-HT1A, 5HT2A and 5HT2C receptor ligands containing a picolinic nucleus: Synthesis, in vitro and in vivo pharmacological evaluation” (Bioorg Med Chem, 2017).

The assay concerns the target T1, 5-hydroxytryptamine receptor 1A (Rattus norvegicus, UniProt P19327).
T1 sequence (P19327 whole entry): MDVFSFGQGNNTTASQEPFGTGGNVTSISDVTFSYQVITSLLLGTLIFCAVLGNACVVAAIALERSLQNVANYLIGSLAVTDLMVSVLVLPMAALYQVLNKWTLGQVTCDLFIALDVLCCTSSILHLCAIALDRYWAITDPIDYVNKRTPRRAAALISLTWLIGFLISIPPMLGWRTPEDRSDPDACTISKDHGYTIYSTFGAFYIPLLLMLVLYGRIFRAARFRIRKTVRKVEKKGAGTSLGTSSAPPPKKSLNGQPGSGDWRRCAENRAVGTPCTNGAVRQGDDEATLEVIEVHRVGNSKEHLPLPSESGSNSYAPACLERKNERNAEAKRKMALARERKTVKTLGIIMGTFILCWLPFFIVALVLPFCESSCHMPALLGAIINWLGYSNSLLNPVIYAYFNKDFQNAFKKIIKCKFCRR
Description: Displacement of [3H]-8-OH-DPAT from serotonin 5-HT1A receptor in Sprague-Dawley rat brain cortex homogenates incubated for 30 mins by liquid scintillation spectrometry. For orientation: In a radioligand displacement assay an active substance lowers the binding of a labelled ligand.

For orientation: Ki means a measure of affinity in units of concentration, obtained from inhibition or displacement. Read a low Ki as tighter binding. `O=C(NCCN1CCN(c2ccc(Cl)c(Cl)c2)CC1)c1ccccn1` yielded a Ki of 0.183 nM. That is a sub-nanomolar value.
